Data set [1] has as its system S. aureus. The data set is described as follows: Flow cytometry analysis of S. aureus staining by FAM-labeled peptides. The data set is classed as cell-based, S. aureus (ATCC 6538). As to conditions: for S. aureus staining of control peptides: 1 μM peptide, 1 mg/mL BSA (FIG. 2C). The protocol: (§1) Each bacterial strain was grown to an OD600˜0.5, washed and diluted with PBS (pH 7.4). The cells (˜1×10^7 cfu/mL) were incubated with various concentrations of FAM-labeled peptide with or without BSA in PBS. After incubation for 1 hour, samples were subjected to cytometric analysis. Data obtained was analyzed via BD FACSDiva software and median fluorescent values were computed from the generated histograms. All flow cytometry experiments were repeated and generated consistent results (see FIG. 14).
(Flow cytometry measures light scatter and fluorescence of single cells or particles in a stream.)

In data set [2] the test system is S. aureus. Kind of data set: Fluorescence microscopy of S. aureus staining by TAMRA-labeled peptides. It is filed as cell-based, S. aureus (ATCC 6538). Here is the method: (§2) Each bacterial strain was grown to an OD600˜1.0, washed and diluted with PBS (pH 7.4). The cells (˜1×10^9 cfu/mL) were incubated with various concentrations of TAMRA-labeled peptide with or without BSA in PBS for 1 hour. The same microscopy procedure described was implemented using filter set 20 HE (excitation: BP 546/12, emission: BP 607/80) suitable for detection of TAMRA fluorescence and images were processed consistently using ImageJ software.

For data set [3], the system named is methicillin-resistant strain of S. aureus (ATCC 43300). Kind of data set: Fluorescence microscopy of MRSA staining by TAMRA-labeled peptide. The data set is classed as cell-based. As to conditions: 2 μM (FIG. 17). Here is the method:
as §2

In data set [4] the test system is Escherichia coli. Kind of data set: Flow cytometry and fluorescence microscopy of E. coli staining. The data set is classed as cell-based. Here is the method:
as §1, §2

Data set [5] has as its system Bacillus subtilis. Kind of data set: Flow cytometry and fluorescence microscopy of B. subtilis staining. It is filed as cell-based. As to conditions: up to 10 μM peptide; flow cytometry with 1 mg/mL BSA and microscopy. The protocol:
as §1, §2

For data set [6], the target named is BSA (Bos taurus, UniProt P02769). The data set is described as follows: Fluorescence anisotropy protein binding (BSA). Also noted: species or system bovine. As to conditions: 500 nM peptide, PBS pH 7.4, 1 hour, high protein concentrations. Here is the method: (§3) (A) Flow cytometry comparison of HSA and BSA in enhancing KAM5 binding to S. aureus. (B) Assessing protein binding of KAM5 using fluorescence anisotropy, for which various concentrations of BSA or HSA were delivered to a 96-well plate (Corning 3603) in PBS (pH 7.4). Peptide was added at a final concentration of 500 nM and incubated for 1 hour. Anisotropy values were measured (Ex: 495 nm, Em: 532 nm) and plotted as an average of three trials with standard deviations. Fluorescein was used as a negative control. The results clearly show binding of KAM5 to these serum proteins.

The target in data set [7] is HSA (Homo sapiens, UniProt P02768). Kind of data set: Fluorescence anisotropy protein binding (HSA). As to conditions: 500 nM peptide, PBS pH 7.4, 1 hour, high protein concentrations. The protocol: as §3
Sequence of HSA (P02768 25-609): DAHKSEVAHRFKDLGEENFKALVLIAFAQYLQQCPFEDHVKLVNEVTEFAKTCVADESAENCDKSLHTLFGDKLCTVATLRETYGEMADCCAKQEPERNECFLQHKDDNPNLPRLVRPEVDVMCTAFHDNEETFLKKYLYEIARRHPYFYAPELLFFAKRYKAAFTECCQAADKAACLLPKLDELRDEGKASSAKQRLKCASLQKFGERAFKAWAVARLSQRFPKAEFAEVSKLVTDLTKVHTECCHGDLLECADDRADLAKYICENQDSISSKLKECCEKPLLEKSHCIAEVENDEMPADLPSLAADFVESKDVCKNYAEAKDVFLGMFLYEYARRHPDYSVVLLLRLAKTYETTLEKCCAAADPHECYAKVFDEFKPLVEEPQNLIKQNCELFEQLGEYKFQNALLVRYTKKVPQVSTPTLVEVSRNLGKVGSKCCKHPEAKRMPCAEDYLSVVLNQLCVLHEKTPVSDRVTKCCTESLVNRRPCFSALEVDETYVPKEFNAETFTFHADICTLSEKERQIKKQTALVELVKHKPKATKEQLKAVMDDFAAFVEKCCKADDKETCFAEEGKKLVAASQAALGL
Data set [8] relates to S. aureus. It is filed as cell-based, S. aureus (ATCC 6538). The note with it: for S. aureus cell death by controls: 1 μM and 2 μM, photoirradiation. Here is the method:
(§4) Each bacterial strain was grown to an OD600˜0.7, washed and diluted with PBS (pH 7.4). The cells (˜1×10^8 cfu/mL) were incubated with eosin-conjugated peptides and various controls for 15 minutes. Half of the bacterial suspension was removed and placed in a 96-well plate (Corning 3595). The well was subjected to photoirradiation on the Zeiss microscope using the 20× objective and fluorescein filter to emit blue light for 15 minutes. Cells were diluted in LB media, spread on LB agar plates and incubated overnight at 37° C. The A. baumannii (LOS−) strain was spread on LB agar (+10 μg/mL polymyxin b) and incubated for 24 hours. The amount of cell killing was calculated by comparing the amount of colonies of treated bacteria to an untreated PBS control. All experiments were repeated and the average cell killing of two trials was plotted.

Data set [9] concerns MRSA. The data set is described as follows: Photoinactivation of bacteria, MRSA. As to conditions: same experimental conditions, photoirradiation (FIG. 19). It is filed as cell-based, S. aureus (ATCC 43300). The protocol:
as §4

The test system of data set [10] is B. subtilis. Kind of data set: Photoinactivation of bacteria, B. subtilis. It is filed as cell-based. As to conditions: 2 μM peptide followed by photoirradiation. The protocol: as §4
Data set [11] relates to E. coli. The data set is described as follows: Photoinactivation of bacteria, E. coli. The data set is classed as cell-based. The note with it: 2 μM peptide followed by photoirradiation. Here is the method:
as §4

The subject of data set [12] is HEK293T cells. As to conditions: MTT, 24 hrs, with or without photoirradiation.
Protocol: HEK293T cells were grown in complete DMEM (containing 10% FBS, 2 mM glutamine and 1% Penicillin/Streptomycin) to about 80% confluency in a 150 mm dish. Cells were removed from the plate with 0.25% trypsin protease solution (containing EDTA) at 37° C. for 5 minutes and pelleted (3,500 rpm, 5 minutes). Cells were diluted in DMEM, distributed to a 96-well plate (Corning 3595) at 30,000 cells/well (100 μL/well) and incubated for 24 hours to allow for cell adherence. 1 μL of 100× DMSO solutions were added to each well and incubations/photoirradiation were performed as described above. After 24 hours, the supernatant culture medium was carefully removed and the cells were incubated with 100 μL MTT (0.5 mg/mL in RPMI) for 4 hours followed by the addition of 10% SDS in 0.01 M HCl (100 μL) and incubation overnight.
(§5) All incubations were performed at 37° C. and 5% CO2. Absorbance readings were measured at 570 nm and cell viability was normalized to the DMSO control as an average of three trials for non-irradiated samples and an average of two trials for photoirradiated samples with standard deviations.
The subject of data set [13] is Jurkat cells. The note with it: MTT, 24 hrs, with or without photoirradiation.
Protocol: Jurkat cells were cultured in RPMI 1640 (containing 10% FBS, 2 mM glutamine, 1% Penicillin/Streptomycin) and maintained at 5×10^5 cells/mL. Cells were diluted in RPMI and distributed to a 96-well plate (Corning 3595) at 50,000 cells/well (200 μL/well). […] A positive control for viability of DMSO treated cells along with a positive control for cytotoxicity of camptothecin at 50 μM (5 mM DMSO stock) were included. For photoirradiation, the cells were incubated with the compound of interest for 15 minutes, each well was irradiated for 15 minutes (see photoinactivation protocol-paragraph 0053) and the plate was returned to the incubator for the remainder of the 24 hour incubation. Cells were centrifuged for 5 minutes (180 rcf) and the supernatant culture medium was carefully removed. 100 μL of 3-(4,5-dimethylthiazol-2-yl)-2,5-diphenyltetrazolium bromide (MTT, 0.5 mg/mL in RPMI) was added to each well and incubated for 4 hours followed by the addition of 10% SDS in 0.01 M HCl (100 μL) and incubation overnight.
as §5
Data set [14] concerns A. baumannii (LOS−). The data set is described as follows: Flow cytometry analysis of A. baumannii (LOS−) staining. The data set is classed as cell-based, A. baumannii (AB5075 LOS−). The note with it: for binding of negative controls to A. baumannii (LOS−) compared with KAM8: 1 μM, 1 mg/mL BSA (FIG. 21B). The protocol:
as §1

Data set [15] deals with A. baumannii (LOS−). Kind of data set: Fluorescence microscopy of A. baumannii (LOS−) staining. The data set is classed as cell-based, A. baumannii (AB5075 LOS−). As to conditions: TAMRA labeled peptide, 2 μM. Here is the method: as §2
Data set [16] has as its system wild type A. baumannii (LOS+). Kind of data set: Fluorescence microscopy and flow cytometry of wild type A. baumannii (LOS+) staining. The data set is classed as cell-based, A. baumannii (AB5075). The note with it: microscopy, same conditions as LOS− strain (legend FIG. 5B: 10 μM for LOS+). Here is the method:
as §1, §2

Data set [17] has as its system LOS− A. baumannii. Kind of data set: Photoinactivation of bacteria, A. baumannii (LOS−). The data set is classed as cell-based, A. baumannii (AB5075 LOS−). As to conditions: for A. baumannii (LOS−) cell death by controls: at these concentrations, photoirradiation (FIG. 5C). Here is the method:
as §4

Data set [18] in a line: Aggregation of peptide in flow cytometry samples. The note with it: concentrations higher than 3 μM. The data set is classed as physicochemical.
Data set [19] has as its system wild-type (LOS+) A. baumannii. The data set is described as follows: Photoinactivation of bacteria, A. baumannii (LOS+). It is filed as cell-based, A. baumannii (AB5075). The note with it: same conditions, 2 μM, photoirradiation (FIG. 5D). The protocol:
as §4

Entries after “also recorded” stand apart in the source; their conditions may differ. Like-named read-outs stand apart in the source and are kept apart here. Non-standard residues stand in square brackets, D forms with d. Residues, ends and D or L forms follow the SMILES beside them. *: point of attachment. X2 = O=C1OC2(c3ccc(C(=O)*)cc31)c1cc(Br)c(O)c(Br)c1Oc1c2cc(Br)c(O)c1Br; 5FAM = O=C1OC2(c3ccc(O)cc3Oc3cc(O)ccc32)c2ccc(C(=O)*)cc21; X1 = CC(=O)c1ccc(OCCCNC(=O)C*)cc1B(O)O; Dap = NC[C@H](N)C(=O)O Bounds are passed on as bounds.

Take `CC(=O)c1ccc(OCCCNC(=O)CSC[C@H](NC(=O)[C@H](C)N)C(=O)N[C@H](C(=O)N[C@@H](CO)C(=O)N2CCC[C@H]2C(=O)N[C@@H](CCCNC(=N)N)C(=O)N[C@@H](CO)C(=O)N[C@@H](Cc2c[nH]cn2)C(=O)N[C@@H](CCC(=O)O)C(=O)N[C@@H](CSCC(=O)NCCCOc2ccc(C(C)=O)c(B(O)O)c2)C(=O)NCC(=O)NCC(=O)NCC(=O)N[C@@H](CNC(=O)c2ccc3c(c2)C(=O)OC32c3ccc(O)cc3Oc3cc(O)ccc32)C(N)=O)C(C)C)cc1B(O)O` [KAM5, ACmVSPRSHECmGGGDap*] (H-AC(X1)VSPRSHEC(X1)GGG[Dap](5FAM)-NH2; N-terminus assumed): the “potency for labeling S. aureus cells compared with KAM14-17” value in data set [1] (flow cytometry (FIG. 18)) was “superior potency”. In addition, in data set [1] (flow cytometry, 1 mg/mL BSA (FIG. 15)), the “S. aureus binding potency compared with Hlys-AB1” value is “much greater than that of Hlys-AB1”. Also, the “effect of BSA addition on S. aureus staining” value in data set [2] (2 μM peptide, BSA up to 10 mg/mL) is reported as “did not inhibit”. Moreover, the “fluorescence staining of S. aureus cells” value in data set [2] (TAMRA labeled peptide, 2 μM) is “strong fluorescence staining”. Besides, the “staining of methicillin-resistant S. aureus compared with strain used in phage display” value in data set [3] is “equally potent staining”. The “staining of E. coli” value in data set [4] (up to 10 μM peptide, flow cytometry with 1 mg/mL BSA and microscopy) is recorded as “negligible staining”. Moreover, in data set [5], the “staining of B. subtilis” value is reported as “negligible staining”. The “binding to BSA” value in [6] is on record as “did show binding”. Moreover, the “binding to HSA” value in data set [7] is listed as “did show binding”. Moreover, in [8], the “S. aureus cell death by controls” value is reported as “did not elicit cell death”.

Take `CC(=O)c1ccc(OCCCNC(=O)CSC[C@H](NC(=O)[C@H](C)N)C(=O)N[C@H](C(=O)N[C@@H](CO)C(=O)N2CCC[C@H]2C(=O)N[C@@H](CCCNC(=N)N)C(=O)N[C@@H](CO)C(=O)N[C@@H](Cc2c[nH]cn2)C(=O)N[C@@H](CCC(=O)O)C(=O)N[C@@H](CSCC(=O)NCCCOc2ccc(C(C)=O)c(B(O)O)c2)C(=O)NCC(=O)NCC(=O)NCC(=O)N[C@@H](CNC(=O)c2ccc3c(c2)C(=O)OC32c3cc(Br)c(O)c(Br)c3Oc3c2cc(Br)c(O)c3Br)C(N)=O)C(C)C)cc1B(O)O` [KAM5-Eosin, ACmVSPRSHECmGGGDap*] (H-AC(X1)VSPRSHEC(X1)GGG[Dap](X2)-NH2; N-terminus assumed): the “cell killing of S. aureus” value in [8] (1 μM) worked out at 74%; in [8] (2 μM) it was 92%. The “cell killing of MRSA compared with S. aureus strain used in selection” value in [9] is “comparable percentage of cell killing; also recorded: comparable potency”. In addition, in data set [10], the “cell death of B. subtilis” value was “no significant cell death”. In addition, the “cell death of E. coli” value in data set [11] is “no significant cell death”. For the same compound, the “mammalian cell toxicity, HEK 293T cells” value in [12] was “no mammalian cell toxicity”. For the same compound, the “mammalian cell toxicity, Jurkat cells” value in [13] is “no mammalian cell toxicity”.

With `CC(=O)c1ccc(OCCCNC(=O)CSC[C@H](NC(=O)[C@H](C)N)C(=O)N[C@H](C(=O)N[C@@H](CC(C)C)C(=O)N2CCC[C@H]2C(=O)N[C@@H](CC(N)=O)C(=O)NCC(=O)N2CCC[C@H]2C(=O)N[C@@H](CCCNC(=N)N)C(=O)N[C@@H](CSCC(=O)NCCCOc2ccc(C(C)=O)c(B(O)O)c2)C(=O)NCC(=O)NCC(=O)NCC(=O)N[C@@H](CNC(=O)c2ccc3c(c2)C(=O)OC32c3ccc(O)cc3Oc3cc(O)ccc32)C(N)=O)[C@@H](C)O)cc1B(O)O` [KAM8, ACmTLPNGPRCmGGGDap*] (H-AC(X1)TLPNGPRC(X1)GGG[Dap](5FAM)-NH2; N-terminus assumed), the “binding to S. aureus” value in data set [2] (TAMRA labeled peptide, 2 μM, 1 mg/mL BSA (FIG. 22)) is “no binding”. In data set [4] (microscopy, TAMRA labeled peptide, 2 μM, 1 mg/mL BSA (FIG. 22)), the “binding to E. coli” value was “no binding”. The “effect of BSA on binding to A. baumannii (LOS−)” value in [14] (1 mg/mL BSA) was “enhanced bacterial staining”. Besides, in data set [15], the “fluorescence staining of LOS− A. baumannii” value is on record as “bright fluorescence staining”. Also, in data set [16], the “fluorescence staining of wild type A. baumannii (LOS+)” value is listed as “little fluorescence staining”. Further, the “A. baumannii (LOS−) cell death by controls” value in data set [17] is “did not elicit A. baumannii cell death”.

For the compound `O=C1OC2(c3ccccc31)c1cc(Br)c(O)c(Br)c1Oc1c2cc(Br)c(O)c1Br` [eosin, reference compound], the “S. aureus cell death by controls” value in data set [8] is “did not elicit cell death”. Further, in data set [17], the “A. baumannii (LOS−) cell death by controls” value was “did not elicit A. baumannii cell death”.

Consider ACAKIFTGCCGGGDap* [KAM14], for which the aggregation entry in data set [18] is “aggregation at higher concentrations”.

For ACTLPNGPRCGGGDap* [KAM8-Cyclic], in [14], the “binding of negative controls to A. baumannii (LOS−) compared with KAM8” value is listed as “much reduced binding”.

For ACVSPRSHECGGGDap* [KAM5-Cyclic], in data set [1] (flow cytometry), the “S. aureus staining of control peptides” value is recorded as “little S. aureus staining”.

ACmGPTAKYICmGGGDap* [KAM6]: the “S. aureus staining of control peptides” value in data set [1] (flow cytometry) is on record as “no bacterial staining”. Besides, in data set [14], the “binding of negative controls to A. baumannii (LOS−) compared with KAM8” value is “much reduced binding”.

As for ACmTLPNGPRCmGGGDap* [KAM8-Eosin], the “cell killing of LOS− A. baumannii” value in data set [17] (15 min light) is over 90%. Besides, the “killing of wild-type (LOS+) A. baumannii” value in [19] is “little killing”.

For the origin of these results see US11655468B2, “Methods and compositions of chemically modified phage libraries” (priority 2018, dated 2023).
